“And” between values parts separate entries of the source, which are not always exact repeats. Equal entries are not always repeated.
Tested on: SARS-CoV-2
Assay: microbe, parasite or virus in culture
Format: cell-based

O=c1ccn([C@@H]2O[C@H](CO)[C@@H](O)[C@H]2O)c(=S)[nH]1 [s2U, 2-thiouridine]
EC50: 2000 nM and 2200 nM and 1800 nM and 2900 nM and 1900 nM and 2500 nM
